Source: patent publication US20250090622A1, “ANGIOTENSIN COMPOSITIONS AND METHODS RELATED THERETO” (LA JOLLA PHARMA, LLC, priority 2017, published 2025)
Read-outs that look alike come from different tables or passages of the source.

Tests used:
blood pressure [1] = conditions: intravenous dosing, dogs; cited from earlier work
[2] = test system: hypotension in distributive shock; assay: clinical study of angiotensin II in treating hypotension in distributive shock; assay type: in vivo, human; conditions: 95% CI 4.76 to 13.3; P<0.001
Description: Vials containing 2 milliliters of 2.5 mg/mL (mg) angiotensin II in 0.9% saline and 25 mg/mL mannitol were evaluated in a clinical study of angiotensin II in treating hypotension in distributive shock (Khanna et al., N Engl J Med 2017; 377:419-430). Patients were currently on other vasopressors but still hypotensive (mean arterial pressure (MAP)[…]65 mmHg). Administration of angiotensin II was begun at a rate of 20 ng/kg/min, and titrated up or down to achieve and maintain an increased MAP of 10 mmHg above baseline or at least 75 mmHg. For the first 3 hours of treatment, the other vasopressors were held constant and the maximum dose allowed of angiotensin II was 200 ng/kg/min. At 3 hours and 15 minutes, all vasopressors could be titrated to maintain a MAP between 65-75 mmHg and an angiotensin II rate of 1.25-40 ng/kg/min. Angiotensin II could be administered for up to 7 days in this study. In this study, about 1 vial of drug (5 mg) was sufficient to treat each patient for a 24-hour period, and patients were on the treatment for an average of 2 days. Most patients required at least 1 mg of drug per day.
A total of 344 patients were assigned to one of the two regimens; 321 received a study intervention (163 received angiotensin II, and 158 received placebo) and were included in the analysis.

blood pressure [3] = conditions: intravenous dosing, rabbits; cited from earlier work
blood pressure [4] = conditions: intravenous dosing, rats; cited from earlier work
[5] = test system: sepsis-induced hypotension; conditions: porcine fecal peritonitis septic shock; hemodynamic effects similar to norepinephrine; cited from earlier work

Question: For CC[C@H](C)[C@H](NC(=O)[C@H](Cc1ccc(O)cc1)NC(=O)[C@@H](NC(=O)[C@H](CCCNC(=N)N)NC(=O)[C@@H](N)CC(=O)O)C(C)C)C(=O)N[C@@H](Cc1c[nH]cn1)C(=O)N1CCC[C@H]1C(=O)N[C@@H](Cc1ccccc1)C(=O)O [angiotensin II, H-Asp-Arg-Val-Try-Ile-His-Pro-Phe-OH], which “effect on blood pressure” value (blood pressure [1]) is on record?
Answer: increase in blood pressure

Question: And the “odds ratio for primary end point, angiotensin II vs placebo” value [2]?
Answer: 7.95

Question: And the “effect on blood pressure” value (blood pressure [3])?
Answer: increase in blood pressure

Question: And the “effect on blood pressure” value (blood pressure [4])?
Answer: increase in blood pressure

Question: And the “effect on sepsis-induced hypotension” value [5]?
Answer: reversed sepsis-induced hypotension
